Experiments:
[1] = test system: Citrobacter intermedium CECT 401; assay: standard CMI evaluation; type: cell-based; conditions: tested at 683-8 mg/L, both products contain 21% LAE
Description: (§1) A precipitate of xanthan/LAE is formed when 150 mL of a solution containing 1.3% of xanthan gum and 300 mL of a solution containing 0.3% of LAE are mixed. Then, 2.5 g of white solid are isolated by filtration.

[2] = test system: Bacillus cereus ATCC 9634; assay: standard CMI evaluation; type: cell-based; conditions: tested at 683-8 mg/L, both products contain 21% LAE
Description: as §1

[3] = test system: Aspergillus niger ATCC 14604; assay: standard CMI evaluation; type: cell-based; conditions: tested at 683-8 mg/L, both products contain 21% LAE
Description: as §1

[4] = test system: Candida albicans ATCC 10231; assay: standard CMI evaluation; type: cell-based; conditions: tested at 683-8 mg/L, both products contain 21% LAE
Description: as §1

[5] = test system: Salmonella typhimurium ATCC 16028; assay: standard CMI evaluation; type: cell-based; conditions: tested at 683-8 mg/L, both products contain 21% LAE
Description: as §1

[6] = test system: Staphylococcus aureus ATCC 6538; assay: standard CMI evaluation; type: cell-based; conditions: tested at 683-8 mg/L, both products contain 21% LAE
Description: as §1

[7] = test system: Enterobacter aerogenes CECT 684; assay: standard CMI evaluation; type: cell-based; conditions: tested at 683-8 mg/L, both products contain 21% LAE
Description: as §1

[8] = test system: Rhodotorula ruba CECT 1158; assay: standard CMI evaluation; type: cell-based; conditions: tested at 683-8 mg/L, both products contain 21% LAE
Description: as §1

[9] = test system: Escherichia coli ATCC 8739; assay: standard CMI evaluation; type: cell-based; conditions: tested at 683-8 mg/L, both products contain 21% LAE
Description: as §1

[10] = test system: Pseudomonas aeruginosa ATCC 9023; assay: standard CMI evaluation; type: cell-based; conditions: tested at 683-8 mg/L, both products contain 21% LAE
Description: as §1

toxicological studies = type: in vivo; conditions: animals and humans
metabolism in rats = type: in vivo

CCCCCCCCCCCC(=O)N[C@@H](CCCN=C(N)N)C(=O)OCC.Cl [LAE, ethyl ester of the lauramide of the arginine monohydrochloride]
CMI [1]: 128 mg/L
CMI [2]: 128 mg/L
CMI [3]: 170 mg/L
CMI [4]: 128 mg/L
CMI [5]: 128 mg/L
CMI [6]: 128 mg/L
CMI [7]: 128 mg/L
CMI [8]: 128 mg/L
CMI [9]: 128 mg/L
CMI [10]: 256 mg/L
toxicity (toxicological studies): completely harmless
absorption and metabolism (metabolism in rats): fast absorption and metabolisation into naturally-occurring amino acids and the fatty acid lauric acid

From patent US7662417B2, “Preservatives and protective systems” (Laboratorios Miret, S.A., priority 2002, dated 2010)
